Legend:
[1] = test system: E. coli S30 coupled in vitro transcription-translation system; experiment: Self-methylation of M.EcoRI gene in coupled in vitro transcription/translation, resistance to cleavage by EcoRI; type: biochemical; details: translation inhibited, in the presence of puromycin
Procedure: The PCR-amplified DNA-methylases genes described above are expressed in a prokaryotic in vitro coupled transcription/translation system designed for linear templates (Lesley et al., 1991). A commercial preparation of this system is used (E. coli S30 Extract System for Linear Templates; Promega) supplemented with T7 RNA polymerase and S-adenosyl methionine (SAM) at 80 μM concentration.
Methylation is assayed by measuring the resistance of DNA fragments labelled with DIG and biotin to cleavage by the cognate restriction enzyme using the Boehringer-Mannheim DIG-Biotin ELISA or with radioactively labelled DNA fragments and streptavidin coated magnetic beads. […] The absorbance (at 450 minus 650 nm) is measured after quenching with 0.5M H2SO4 (130 μl/well).
For the radioactive assay, the plasmids and PCR fragments described above are amplified by PCR using primers LMB2-Biotin (SEQ. ID. No. 9) and LMB3 and α-P^32-CTP to give P^32-labelled DNA fragments labelled at one end by biotin and which carry the T7 RNA polymerase promoter, the phage T7 gene 10 translational start site, the methyltransferase gene and the relevant M/R sites. […] The amount of radioactively-labelled DNA on the beads and in the supernatants is determined by scintillation. […]

[2] = test system: coupled transcription-translation reaction; experiment: Production of active DHFR in a 2 hour coupled transcription-translation reaction; type: biochemical, E. coli; details: 0.1 mM, alone or in combination; 2 hour reaction

Molecule | resistance to cleavage by EcoRI [1] | inhibition of the production of active DHFR [2]
COc1ccc(C[C@H](N)C(=O)N[C@H]2[C@@H](O)[C@H](n3cnc4c(N(C)C)ncnc43)O[C@@H]2CO)cc1 [puromycin] | not observed | 
NADPH |  | does not cause any inhibition

Reference: patent publication US7138233B2, “IN vitro sorting method” (Medical Research Council, priority 1997, dated 2006)
